Where two headings read alike, the source gives them in different places.
How the values were obtained:
[1] = tested on: Serum Triglycerides and Cholesterol; assay: Triton-induced hyperlipidemia test (Table 1); type: in vivo, male Sprague-Dawley rats; conditions: 140 mg/kg p.o.; for Serum Cholesterol / Serum Triglycerides: ± SD
Experimental: Fasted, male Sprague-Dawley rats weighing 250-350 g were fed ad libitum a commercial lab chow with free access to water. The animals were fasted overnight and administered Triton-WR-1339 (produced by Ruger Chemical Company, Inc., Irvington, New Jersey) as described by Schurr et al.; Lipids 7 68(1972) except the procedure was modified to use the saphenous vein and divided doses of 70 mg/kg. The rats were anesthetized with sodium pentobarbital and terminally bled by heart puncture. Serum was stored at -20° C. until it was analyzed for total cholesterol and triglycerides. Comparison was also made with clofibrate.

Serum and Liver Lipids [2] = assay: Linoleamide of norfenfluramine in rats fed a hypercholesteremic diet: serum and liver lipids (Table 6); type: in vivo; conditions: 0.2% in food
Experimental: (§1) General feeding experiments were conducted on rats to determine the effect of the amides of this invention on serum and liver lipids of animals fed a basal diet and a basal diet supplemented with cholesterol. In addition, the effect of these drugs on serum lipoproteins was studied as well as their effect on body weight, gross feed efficiency, liver weight, appetite and energy utilization with respect to their metabolic size. Male, Sprague-Dawley rats weighing 150-175 g. were housed in cages with raised wire floors in a room kept at a temperature of 24°-26° C. with a 12-hour day and 12-hour night cycle, fed ad libitum a semipurified diet consisting by weight % composition: vitamin-free casein, 20; glucose, 63; hydrogenated coconut oil, 10; GBI Vitamin Fortification Mixture, Cat. #40060 obtained from General Biochemical Company of Chargrin Falls, Ohio, 1; modified salt mix of Williams and Briggs, Cat. #170911 obtained from General Biochemical Company, 4; and cellulose, 2; and watered. The modified salt mix provided the following amounts in grams of elements per Kg. of diet:
(§2) Diets were supplemented with 0.5% cholic acid, 1% cholesterol, and drug at the expense of glucose. The experimental period was 18-21 days with body weight and food measured at specified intervals. Animals were fasted overnight and terminally bled by cardiac puncture. Blood was anti-coagulated with ethylenediamine tetracetic acid and plasma was separated by centrifugation, and stored at -20° C. Livers were excised, weighed, and stored at -20° C. All samples remained at this temperature until they were analyzed for total lipids, total cholesterol, triglycerides and phospholipids. Gross feed efficiency together with the effect of metabolic size on food intake and the effect of drug on energy utilization were determined.
(a) ± values are standard deviation of 10 animals per group.
(b) Semi-purified diet supplemented with 1% cholesterol and 0.5% cholic
acid at expense of glucose.

[3] = Motor activity, modification of the method of Cook et al.; type: in vivo, female albino mice, ICR strain; conditions: 6.5 mg/kg, i.p.
Excerpt: Motor activity of norfenfluramine and the amides of norfenfluramine of this invention were compared by determination of the activity in female, albino mice of the ICR strain by a modification of the method of Cook et al. in J. Pharmac. Exp. Ther. 113:11a (1955).

[4] = Neurotoxicity, tremors and lethality; type: in vivo, mice; conditions: i.p.
[5] = Dietary-induced hyperlipemia test, basal semi-purified diet: liver weight, body weight, food consumption (Table 2); type: in vivo, male Sprague-Dawley rats; conditions: .2% in food
Experimental: as §1, §2
(§3) Results of testing the mixed amides of Example 5 and reference compounds in rats on a basal diet according to the foregoing procedure for dietary induced hyperlipemia are in Tables 2 and 3.

Serum and Liver Lipids [6] = assay: Dietary-induced hyperlipemia test, basal semi-purified diet: serum and liver lipids (Table 3); type: in vivo, male Sprague-Dawley rats; conditions: .2% in food, ± S.D.
Experimental: as §1, §2, §3

[7] = type: in vivo, male Sprague-Dawley rats; conditions: cholesterol diet, .2% in food
Experimental: as §1, §2
(§4) Results of testing the mixed amides of Example 5 an reference compounds in rats on a basal diet with added cholesterol according to the foregoing procedure for dietary induced hyperlipemia are in Tables 4 and 5.

Serum and Liver Lipids [8] = assay: Dietary-induced hyperlipemia test, basal diet with cholesterol: serum and liver lipids (Table 5); type: in vivo, male Sprague-Dawley rats; conditions: .2% in food, ± S.D.
Experimental: as §1, §2, §4

Serum Lipoproteins = assay: Serum lipoproteins of rats fed semi-purified diet supplemented with cholesterol (Table 7); type: in vivo; conditions: .2% in food
Experimental: as §1, §2
^a VLDL, very low density lipoproteins; LDL, low density lipoproteins
and HDL, high density lipoproteins as determined on a Beckman-Gilford

[9] = tested on: β-Sterol Synthesis, Liver; assay: β-Sterol synthesis, acetate-1-14C incorporation, liver (Table 8); type: in vivo, male Sprague-Dawley rats
Experimental: (§5) The effect of the mixed amides of Example 5 and reference compounds on β Sterol synthesis was determined by a modified procedure of Hill and Dvornik Arch. Biochem. Biophys. 114 (1966), 88. Male Sprague-Dawley rates weighing 127-175 g. were freely provided a basal semi-purified diet and water. The rats were housed in cages with raised wire floors in a room kept at a temperature of 24°-26° C. with a 12-hour day-12-hour night cycle. The cycle was reversed so the night cycle corresponded to the working day to take advantage of the circadian rhythm that favors cholesterol synthesis. The test period was five days and 20 μCi sodium acetate-1-^14 C (Sp. act. 56 mCi/m mole) administered intraperitoneally. Animals were sacrificed under carbon dioxide and the distal 10 cm of the ileum as well as the median and left liver lobes excised and homogenized. Subsequently, the β Sterols were isolated as the digitonide and the radioactivity determined in a Packard Tricarb Liquid Scintillation Spectrometer Model 3385 using 0.5% 2,5 diphenyloxazole and 8% naphthalene in a solvent mixture of 40% toluene, 40% dioxane and 20% absolute ethanol. Data for the effect of the mixed amides of Example 5 on the synthesis of nonsaponifiable substances and β Sterols as determined by the Digitonide method are shown in Table 8. […] A prior art compound, α-methylbenzyllinoleamide at 140 mg/kg, p.o. had no effect on cholesterol synthesis in either tissue.

[10] = tested on: β-Sterol Synthesis, Ileum; assay: β-Sterol synthesis, acetate-1-14C incorporation, ileum (Table 8); type: in vivo, male Sprague-Dawley rats
Experimental: as §5

[11] = rats; seemed to be caused by reduced feed intake; cited from earlier work

CCCCCCCCCCCCCCCCCC(=O)NC(C)Cc1cccc(C(F)(F)F)c1 (stereo not shown) [Ex.4, N-[1-methyl-2-(3-trifluoromethylphenyl)ethyl]octadecanamide]
% Change Cholesterol ([1]; Test Group IV, vs control): -24%
% Change Triglycerides ([1]; Test Group IV, vs control): -74%
Serum Cholesterol ([1]; Test Group IV): 214.3 ± 91.6 mg/100 ml
Serum Triglycerides ([1]; Test Group IV): 160.0 ± 110.0 mg/100 ml

CCCCC/C=C\C/C=C\CCCCCCCC(=O)NC(C)Cc1cccc(C(F)(F)F)c1 (stereo not drawn) [Ex. 1, N-[1-methyl-2-(3-trifluoromethylphenyl)ethyl]octadeca-9,12-dienamide(cis-cis)]
% Change Triglycerides ([1]; Test Group I, vs control): -54%
Serum Cholesterol ([1]; Test Group I): 209.0 ± 16.4 mg/100 ml
Serum Triglycerides ([1]; Test Group I): 268.7 ± 69.6 mg/100 ml
Liver Cholesterol (Serum and Liver Lipids [2]; SD 0.73 (10 animals), p<.05): 7.15 mg/g
Liver Triglycerides (Serum and Liver Lipids [2]; SD 3.67 (10 animals), p<.05): 5.59 mg/g
Serum Phospholipids (Serum and Liver Lipids [2]; SD 18.4 (10 animals)): 105.4 mg/100 ml
Serum Cholesterol (Serum and Liver Lipids [2]; SD 30 (10 animals), p<.05): 212 mg/100 ml
Serum Triglycerides (Serum and Liver Lipids [2]; SD 62 (10 animals), p<.05): 156 mg/100 ml
Liver Phospholipids (Serum and Liver Lipids [2]; SD printed + 8.75 (10 animals)): 24.1 mg/g

CC(N)Cc1cccc(C(F)(F)F)c1 (stereo not shown) [norfenfluramine]
effect on motor activity [3]: strong effect
tremors ([4]; 40 mg/kg): tremors were observed
lethality ([4]; 100 mg/kg): lethality

CCCCC/C=C\C/C=C\CCCCCCCC(=O)NC(C)c1ccccc1 (stereo not drawn) [α-methylbenzyl linoleamide]
Food Consumed [5]: 331 g
Gross Feed Efficiency ([5]; gross weight gain in grams/total food consumed in grams): .210
Body wt, Final ([5]; ± S.D.): 226 ± 30 g
Liver wt per 100 g body wt. ([5]; ± S.D.): 2.9 ± .3 g
Liver wt, Total ([5]; ± S.D.): 6.7 ± .8 g
Liver Cholesterol (Serum and Liver Lipids [6]): 3.34 ± .24 mg/g
Liver Lipids, Total (Serum and Liver Lipids [6]): 40.05 ± 11.37 mg/g
Liver Triglycerides (Serum and Liver Lipids [6]): 4.85 ± 2.71 mg/g
Serum Cholesterol (Serum and Liver Lipids [6]): 77.50 ± 3.91 mg/100 ml
Serum Lipids, Total (Serum and Liver Lipids [6]): 199.80 ± 60.9 mg/100 ml
Serum Triglycerides (Serum and Liver Lipids [6]): 72.33 ± 29.92 mg/100 ml
Food Consumed [7]: 311 g
Gross Feed Efficiency ([7]; gross weight gain/total food consumed in grams): .177
Body wt, Final ([7]; ± S.D.): 192 ± 25 g
Liver wt per 100 g body wt. ([7]; ± S.D.): 3.7 ± .2 g
Liver wt, Total ([7]; ± S.D.): 7.1 ± 1.3 g
Liver Triglycerides (Serum and Liver Lipids [8]): 4.35 ± 2.88 mg/g
Serum Cholesterol (Serum and Liver Lipids [8]; p<.05 for Ex. 5): 197.75 ± 23.24 mg/100 ml
Liver Cholesterol (Serum and Liver Lipids [8]; p<.05 for all): 8.33 ± 1.37 mg/g
Liver Lipids, Total (Serum and Liver Lipids [8]; p<.05 for all): 84.00 ± 14.26 mg/g
Serum Lipids, Total (Serum and Liver Lipids [8]; p<.05 for all): 453.25 ± 90.58 mg/100 ml
Serum Triglycerides (Serum and Liver Lipids [8]; p<.05 for clofibrate): 262.50 ± 51.88 mg/100 ml
Albumin, Percentage Composition (Serum Lipoproteins): 15.65%
HDL, Percentage Composition (Serum Lipoproteins): 29.62%
LDL, Percentage Composition (Serum Lipoproteins): 18.51%
VLDL, Percentage Composition (Serum Lipoproteins): 36.19%
Acetate-1-14C incorporated, Digitonide ([9]; Liver, 140 mg/kg p.o., ± S.D.): 3.882 ± 2.887 n moles/g tissue
Acetate-1-14C incorporated, Non-saponifiable ([9]; Liver, 140 mg/kg p.o., ± S.D.): 4.533 ± 3.131 n moles/g tissue
effect on cholesterol synthesis ([9]; liver, 140 mg/kg, p.o.): no effect
Acetate-1-14C incorporated, Digitonide ([10]; Ileum, 140 mg/kg p.o., ± S.D.): 5.947 ± .654 n moles/g tissue
Acetate-1-14C incorporated, Non-saponifiable ([10]; Ileum, 140 mg/kg p.o., ± S.D.): 7.648 ± 1.664 n moles/g tissue
effect on cholesterol synthesis ([10]; ileum, 140 mg/kg, p.o.): no effect
gain in body weight [11]: did suppress gain in body weight
